Data from the NIST ThermoML archive (doi:10.1021/acs.jced.7b00060).
“And” between values parts separate entries of the source, which are not always exact repeats. Equal entries are not always repeated.

Columns and labels:
[1] = refractive index (Na D-line) (dimensionless); settings: 101.33 kPa, Liquid, Standard Abbe refractometry
[2] = 101.33 kPa, Liquid; for electrical conductivity: Alternating current cell with electrodes; for viscosity: Falling or rolling sphere viscometry; for mass density: Vibrating tube method

CCCC[N+]1(C)CCCC1.N#CN=C=[N-] [1-butyl-1-methylpyrrolidinium dicyanamide]
Settings	electrical conductivity, [2]	mass density, [2]	refractive index, [1]	viscosity, [2]
238.15 K	0.0337 S/m	–	–	–
248.15 K	0.081 S/m and 0.102 S/m	–	–	–
258.15 K	0.166 S/m and 0.2 S/m	–	–	–
268.15 K	0.299 S/m and 0.352 S/m	–	–	–
278.15 K	0.49 S/m and 0.566 S/m	1029 kg/m3 and 1024.78 kg/m3	–	95.5 mPa·s and 80.15 mPa·s
288.15 K	0.746 S/m and 0.844 S/m	1023.24 kg/m3 and 1019.06 kg/m3	1.4862	61.23 mPa·s and 51.72 mPa·s
293.15 K	–	–	1.4853	–
298.15 K	1.07 S/m and 1.19 S/m	1017.56 kg/m3 and 1013.4 kg/m3	1.4847	41.78 mPa·s and 35.85 mPa·s
303.15 K	–	–	1.4842	–
308.15 K	1.46 S/m and 1.61 S/m	1011.95 kg/m3 and 1007.81 kg/m3	1.4836	29.99 mPa·s and 25.93 mPa·s
313.15 K	–	–	1.4832	–
318.15 K	1.92 S/m and 2.08 S/m	1006.4 kg/m3 and 1002.27 kg/m3	1.4826	21.44 mPa·s and 19.43 mPa·s
323.15 K	–	–	1.4818	–
328.15 K	2.44 S/m and 2.63 S/m	1000.91 kg/m3 and 996.796 kg/m3	1.481	16.47 mPa·s and 15 mPa·s
333.15 K	–	–	1.48	–
338.15 K	3.02 S/m and 3.23 S/m	995.474 kg/m3 and 991.368 kg/m3	1.479	13.08 mPa·s and 11.84 mPa·s
343.15 K	–	–	1.4779	–
348.15 K	3.88 S/m	985.987 kg/m3	–	10.57 mPa·s and 9.634 mPa·s
358.15 K	4.58 S/m	980.656 kg/m3	–	8.801 mPa·s and 8.017 mPa·s
368.15 K	5.32 S/m	–	–	7.467 mPa·s and 6.774 mPa·s
378.15 K	6.11 S/m	–	–	6.444 mPa·s and 5.761 mPa·s
388.15 K	6.93 S/m	–	–	5.605 mPa·s and 5.001 mPa·s
398.15 K	7.78 S/m	–	–	4.956 mPa·s and 4.386 mPa·s
408.15 K	8.67 S/m	–	–	3.905 mPa·s
418.15 K	9.57 S/m	–	–	–
428.15 K	10.5 S/m	–	–	–
438.15 K	11.4 S/m	–	–	–
448.15 K	12.3 S/m	–	–	–

CCCC[n+]1ccccc1.O=S(=O)([N-]S(=O)(=O)C(F)(F)F)C(F)(F)F [1-butylpyridinium bis[(trifluoromethyl)sulfonyl]imide]
Settings	electrical conductivity, [2] [S/m]	mass density, [2] [kg/m3]	refractive index, [1]	viscosity, [2] [mPa·s]
278.15 K	0.119	1467.88	–	182.1
283.15 K	–	–	1.4474	–
288.15 K	0.206	1458.26	1.4459	100.9
293.15 K	–	–	1.4444	–
298.15 K	0.326	1448.74	1.4429	61.39
303.15 K	–	–	1.4414	–
308.15 K	0.483	1439.32	1.4399	40.14
313.15 K	–	–	1.4384	–
318.15 K	0.677	1430.02	1.4369	27.9
323.15 K	–	–	1.4354	–
328.15 K	0.909	1420.8	1.4339	20.36
333.15 K	–	–	1.4324	–
338.15 K	1.17	1411.66	1.4309	15.42
343.15 K	–	–	1.4294	–
348.15 K	1.47	1402.6	–	12.04
358.15 K	1.8	1393.63	–	9.663
368.15 K	2.16	–	–	7.904
378.15 K	2.54	–	–	–
388.15 K	2.94	–	–	–
398.15 K	3.37	–	–	–
418.15 K	4.27	–	–	–
438.15 K	5.24	–	–	–
